Read-outs that look alike come from different tables or passages of the source.
Key:
[1] = human

SMILES | flux through human cadaver epidermis (clinical significance) (human, pH 8.6) | flux through human cadaver epidermis (clinical significance) (pH 5.6) | flux through human cadaver epidermis (clinical significance) (pH 7.3) | Cumulative Flux ([1]; 0 h) [μg/cm^2] | Cumulative Flux ([1]; 3 h) [μg/cm^2] | Cumulative Flux ([1]; 6 h) [μg/cm^2] | Cumulative Flux ([1]; 9 h) [μg/cm^2] | Cumulative Flux ([1]; 24 h) [μg/cm^2] | Cumulative Flux ([1]; 48 h) [μg/cm^2] | Cumulative Flux ([1]; 72 h) [μg/cm^2] | flux through human cadaver epidermis (clinical significance) (pH 8.6)
COc1ccc2c(c1)[C@]13CCCC[C@@H]1[C@H](C2)N(C)CC3 [Dextromethorphan, dextromethorphan] | higher than at a pH of 7.3 | clinically insignificant | remains clinically insignificant |  |  |  |  |  |  |  | 
O=C(c1ccccc1)c1ccc2n1CCC2C(=O)O (stereo not shown) [Ketorolac, ketorolac tromethamine] |  | clinically significant | decreased to a clinically insignificant level | 0 | 24 | 7 | 11 | 100 | 412 | 726 | remains clinically insignificant

From patent publication US20070248657A1, “Multi-compartment transdermal pain control device” (priority 2006, published 2007)
